Data published in patent US4221909A, “P-Acetamidobenzoic acid salts of 9-(hydroxyalkyl) purines” (Sloan-Kettering Institute for Cancer Research, priority 1978, dated 1980).

Experiments:
Mouse spleen cells = assay: Mitogen Induced (Con A) Mouse Lymphocyte Proliferation; assay type: cell-based
Source text: (§1) The following three assay procedures are used to evaluate the ability of the test substances to modulate the activity of several classes of cells in the immune system. In these systems it is possible to identify both immunopotentiating activity (evidence by an enhancement of the parameter examined) as well as immunosuppressant activity (evidenced by an inhibition of the parameter examined).
1. Mitogen--Induced Mouse Spleen Cell Assay--Mouse spleen cells contain a population of both B and T lymphocytes which can be stimulated by a number of foreign substances (e.g., plant mitogens such as Con A) to proliferate. This enhanced proliferation is an indication of enhanced cell mediated immunity. The method below describes the system used to evaluate test substances as immunopotentiators.
Concanavalin A (Calbiochem, La Jolla, Calif.), Lot #210073, lyophilized in NaCl, was prepared first as a 1% solution and diluted as a 2× concentration for each dilution (0.5, 1.0, 2.5 μg/ml).
Six to eight week old male Balb/c and C3 H inbred mice were obtained from the following sources: Flow Research Animals, Inc., Dublin, Va.; Charles River Breeding Laboratories, Wilmington, Mass.; Laboratory Supply Company, Indianapolis, Ind.; and Lionel Strong Foundation, San Diego, Calif.
Three to five mice were sacrificed by cervical dislocation and the spleens aseptically removed. Pooled spleens were minced and teased with sterile forceps; then strained through a double layer of nylon mesh. The cell suspension was washed once with 15 ml of RPMI 1640 supplemented with 5% fetal calf serum and antibiotics. Cells were cultured at a concentration of 10^6 cells/0.1 ml/well in micro-plates. Cultures were incubated in the presence or absence of mitogen in a humidified atmosphere containing 5% CO2 for 48 hours. The test compound was added to cultures at various concentrations concommitant with mitogen.
Proliferation was assayed by the degree of incorporation of 1.0 μCi of [^3 H] thymidine over an 18 hour incubation period. Cultures were harvested by a MASH unit (Otto Hiller Co., Madison, Wisconsin) and thymidine incorporation was assayed by liquid scintillation spectrometry. Cultures were performed in triplicate and data are expressed as means plus or minus the strandard error of the experimental means. Drug stimulation indices over control values were also calculated and portrayed graphically.

[1] = system: guinea pig peritoneal macrophages; assay: Lymphokine Induced (MMF) Guinea Pig Macrophage Proliferation; assay type: cell-based
Source text: as §1
3. The macrophage represents a subpopulation of white blood cells which is an important component of the immune system in control of both cellular and humoral immunity. The assay system described below evaluates the substances studied as potentiators of macrophage function.
Phytohemagglutinin(PHA) (HA-17) was purchased from Burroughs Wellcome. A preparation containing Macrophage Mitogen Factor (MMF) and Macrophage Activating Factor (MAF) was prepared from antigen-stimulated immune lymph node lymphocytes (guinea pig) as previously described by Hadden et al, Nature 257, 483-485 (1975). […] The active fraction was employed in both the proliferation and activation assays.
Ficoll-hypaque purified human peripheral blood lymphocytes were prepared and PHA-induced lymphocyte proliferation was assayed by the incorporation of tritiated thymidine as described in Hadden et al, Cell. Immunol. 20, 98-103 (1975). Each compound was analyzed in the presence of suboptimal, optimal and supraoptimal concentrations of PHA (0.001, 0.01, 0.1 units/ml respectively). Paraffin oil-induced guinea pig peritoneal macrophages were prepared and incubated as monolayer culture (>98% pure macrophages). Lymphokine (MMF)-induced proliferation was assayed by the incorporation of triturated thymidine at 3 and 5 days of culture as described, Hadden et al, Nature 257, 483-485 (1975). Lymphokine (MAF)-induced macrophage activation to kill Listeria monocytogenes following 5 days of culture in the presence or absence of MAF was performed during a 6 hour period as described in Hadden and England, Immunopharmacology, pages 87-100 (Plenum Press, 1977). Phagocytosis was quantitated during a 20-minute exposure to Listeria monocytogenes by counting the number of macrophages containing bacteria and the number of bacteria per phagocytic cell on gram stained monolayers in Labtek chambers. Intracellular killing of bacteria was evaluated by counting the number of cells containing bacteria and the number of bacteria/cell 6 hours after the initial 20 minute exposure. Parallel experiments in which macrophages were lysed and intracellular bacteria were cultured confirm the validity of bacterial activity determined by this manner in this sytem. The drugs were employed in each of the three systems over serial log concentration range in triplicate in the presence and absence of mitogen or lymphokine. Each type of experiment was performed at least three times. Previous experiments indicate a parallelism of response to pharmacologic modulation in the proliferation and activation assays.

Row | Compound | Maximum Percent Change, Mitogen Induced (Con A) Mouse Lymph. Prolif. (Mouse spleen cells; 1.0-10, listed as 15417) | Maximum Percent Change, Mitogen Induced (Con A) Mouse Lymph. Prolif. (Mouse spleen cells; 10-100, listed as 15417) | Maximum Percent Change, Mitogen Induced (Con A) Mouse Lymph. Prolif. (Mouse spleen cells; .01-1.0, listed as 15417) | Maximum Percent Change, Lymphokine Induced (MMF) Guinea Pig Mac. Prolif. ([1]; 1.0-10, listed as 15417) | Maximum Percent Change, Lymphokine Induced (MMF) Guinea Pig Mac. Prolif. ([1]; 10-100) | Maximum Percent Change, Mitogen Induced (Con A) Mouse Lymph. Prolif. (Mouse spleen cells; 1.0-10) | Maximum Percent Change, Mitogen Induced (Con A) Mouse Lymph. Prolif. (Mouse spleen cells; 10-100) | Maximum Percent Change, Mitogen Induced (Con A) Mouse Lymph. Prolif. (Mouse spleen cells; .01-1.0) | Maximum Percent Change, Lymphokine Induced (MMF) Guinea Pig Mac. Prolif. ([1]; 1.0-10) | Maximum Percent Change, Lymphokine Induced (MMF) Guinea Pig Mac. Prolif. ([1]; .01-1.0) | Maximum Percent Change, Mitogen Induced (Con A) Mouse Lymph. Prolif. (Mouse spleen cells; 1.0-10, listed as 15418) | Maximum Percent Change, Mitogen Induced (Con A) Mouse Lymph. Prolif. (Mouse spleen cells; 10-100, listed as 15418) | Maximum Percent Change, Mitogen Induced (Con A) Mouse Lymph. Prolif. (Mouse spleen cells; .01-1.0, listed as 15418) | Maximum Percent Change, Lymphokine Induced (MMF) Guinea Pig Mac. Prolif. ([1]; 1.0-10, listed as 15418)
1 | CCCCCCC(CO)n1cnc2c(=O)[nH]cnc21 (stereo not shown) [NPT 15417] | 0% | 0% | 0% | 13% | -50% | – | – | – | – | – | – | – | – | –
2 | CCCCCC[C@H]([C@H](C)O)n1cnc2c(=O)[nH]cnc21 (relative stereo) [NPT 15410] | – | – | – | – | – | 40% | 40% | 140% | 23% | 12% | – | – | – | –
3 | CCCCCCC(CO)n1cnc2c(=O)[nH]cnc21 (stereo not shown) [NPT 15418] | – | – | – | – | -50% | – | – | – | – | 12% | 73% | 26% | 41% | 80%
